Oligonucleotides are written 5' to 3', each unit as a sugar letter and its base; * is a phosphorothioate linkage, no mark a phosphodiester; rarer units and linkages stand in square brackets, end groups in braces. Plain capitals give the bases only. d = 2'-deoxy (DNA); r = 2'-OH (RNA)

The series concerns the target UBE2C. In words: reporter assay of Huesken 2005. Particulars: siRNA.
Note: test concentration or dose not given here.

Take “sense rCrUrCrCrArUrCrCrArGrArGrCrCrUrUrCrUrAdTdT / antisense rUrArGrArArGrGrCrUrCrUrGrGrArUrGrGrArGdAdG”: the normalised inhibition (eCFP-eYFP dual reporter) came out at 81.9%.
In turn, “sense rGrArArGrGrArArArArGrUrGrGrUrCrUrGrCrCdTdT / antisense rGrGrCrArGrArCrCrArCrUrUrUrUrCrCrUrUrCdAdG” had a normalised inhibition (eCFP-eYFP dual reporter) of 63.3%.
The substance “sense rCrCrArCrArGrUrGrArArGrUrUrCrCrUrCrArCdTdT / antisense rGrUrGrArGrGrArArCrUrUrCrArCrUrGrUrGrGdGdC” displayed a normalised inhibition (eCFP-eYFP dual reporter) of 74.3%.
“sense rUrArGrUrCrCrCrUrUrGrArArCrArCrArCrArUdTdT / antisense rArUrGrUrGrUrGrUrUrCrArArGrGrGrArCrUrAdTdC” showed a normalised inhibition (eCFP-eYFP dual reporter) of 76.1%.
“sense rArGrUrArUrArUrGrArArGrArCrCrUrGrArGrGdTdT / antisense rCrCrUrCrArGrGrUrCrUrUrCrArUrArUrArCrUdGdT”: the normalised inhibition (eCFP-eYFP dual reporter) stood at 77.2%.
As for “sense rGrCrGrCrCrCrArCrArGrUrGrArArGrUrUrCrCdTdT / antisense rGrGrArArCrUrUrCrArCrUrGrUrGrGrGrCrGrCdAdT”, the normalised inhibition (eCFP-eYFP dual reporter) is 70.9%.
For the substance “sense rCrCrUrGrGrArCrArUrCrCrUrGrArArGrGrArAdTdT / antisense rUrUrCrCrUrUrCrArGrGrArUrGrUrCrCrArGrGdCdA”, the normalised inhibition (eCFP-eYFP dual reporter) came out at 74.2%.
Substance “sense rArGrUrGrGrUrCrUrGrCrCrCrUrGrUrArUrGrAdTdT / antisense rUrCrArUrArCrArGrGrGrCrArGrArCrCrArCrUdTdT” had a normalised inhibition (eCFP-eYFP dual reporter) of 61.1%.
To “sense rUrArArGrCrUrCrUrCrGrCrUrArGrArGrUrUrCdTdT / antisense rGrArArCrUrCrUrArGrCrGrArGrArGrCrUrUrAdTdA” belongs 60.2%; to “sense rCrArUrCrCrArGrArGrCrCrUrUrCrUrArGrGrAdTdT / antisense rUrCrCrUrArGrArArGrGrCrUrCrUrGrGrArUrGdGdA”, 78.6%; to “sense rUrGrArGrGrUrArUrArArGrCrUrCrUrCrGrCrUdTdT / antisense rArGrCrGrArGrArGrCrUrUrArUrArCrCrUrCrAdGdG”, 80.6%.
“sense rUrCrUrArGrGrArGrArArCrCrCrArArCrArUrUdTdT / antisense rArArUrGrUrUrGrGrGrUrUrCrUrCrCrUrArGrAdAdG”: the normalised inhibition (eCFP-eYFP dual reporter) was found to be 88.8%.
“sense rArUrGrUrCrArGrGrArCrCrArUrUrCrUrGrCrUdTdT / antisense rArGrCrArGrArArUrGrGrUrCrCrUrGrArCrArUdCdA” had a normalised inhibition (eCFP-eYFP dual reporter) of 56.5%.
Next, “sense rGrCrUrGrGrArArCrArGrUrArUrArUrGrArArGdTdT / antisense rCrUrUrCrArUrArUrArCrUrGrUrUrCrCrArGrCdTdG”: 90.4%.
In the case of “sense rArCrCrCrArGrGrGrUrArArCrArUrArUrGrCrCdTdT / antisense rGrGrCrArUrArUrGrUrUrArCrCrCrUrGrGrGrUdGdT”, the normalised inhibition (eCFP-eYFP dual reporter) came to 39.6%.
Substance “sense rCrArGrArGrCrCrUrUrCrUrArGrGrArGrArArCdTdT / antisense rGrUrUrCrUrCrCrUrArGrArArGrGrCrUrCrUrGdGdA” came in with a normalised inhibition (eCFP-eYFP dual reporter) of 75.5%.
“sense rUrGrGrCrUrArCrCrCrUrUrArCrArArUrGrCrGdTdT / antisense rCrGrCrArUrUrGrUrArArGrGrGrUrArGrCrCrAdCdT”: the normalised inhibition (eCFP-eYFP dual reporter) worked out at 61.3%.
In turn, “sense rGrCrUrArGrArGrUrUrCrCrCrCrArGrUrGrGrCdTdT / antisense rGrCrCrArCrUrGrGrGrGrArArCrUrCrUrArGrCdGdA” showed a normalised inhibition (eCFP-eYFP dual reporter) of 69%.
The substance “sense rGrGrUrCrUrGrCrCrCrUrGrUrArUrGrArUrGrUdTdT / antisense rArCrArUrCrArUrArCrArGrGrGrCrArGrArCrCdAdC” displayed a normalised inhibition (eCFP-eYFP dual reporter) of 55.5%.

The values above are taken from the OligoGym collection.
